Assay [1] deals with NB4 cells. In words: Granulocytic differentiation analysis (flow cytometry). In kind it is cell-based, human. As to conditions: 1 μM ATRA, 48 hours, versus DMSO. How it is done: NB4 cells treated either with DMSO or 1 μM ATRA were washed with 2% fetal bovine serum prior to staining. Anti-human CD11b-PE-Cy7 antibody conjugate (Clone: ICRF44, Biolegend Catalog #301321; 1:100) and anti-human CD11c-APC antibody conjugate (Clone: B-1y6, BD Pharmingen #559877; 1:100) were incubated with samples for 20 minutes and then washed to remove excess antibody. Stained samples were analyzed on a Beckman Coulter CytoFLEX LX flow cytometer with the CytoExpert v2.3.1.22 software. Data were analyzed with FlowJo v10.0.7.

The target in assay [2] is T1, PML-RARA oncogenic fusion protein (Homo sapiens, UniProt P10276+P29590).
T1 construct: PML portion (fusion partner, human Protein PML, P29590); endogenous in cells; host or cells: NB4 acute promyelocytic leukemia cells
T1 sequence (P29590+P10276 with tags, fused parts or gaps): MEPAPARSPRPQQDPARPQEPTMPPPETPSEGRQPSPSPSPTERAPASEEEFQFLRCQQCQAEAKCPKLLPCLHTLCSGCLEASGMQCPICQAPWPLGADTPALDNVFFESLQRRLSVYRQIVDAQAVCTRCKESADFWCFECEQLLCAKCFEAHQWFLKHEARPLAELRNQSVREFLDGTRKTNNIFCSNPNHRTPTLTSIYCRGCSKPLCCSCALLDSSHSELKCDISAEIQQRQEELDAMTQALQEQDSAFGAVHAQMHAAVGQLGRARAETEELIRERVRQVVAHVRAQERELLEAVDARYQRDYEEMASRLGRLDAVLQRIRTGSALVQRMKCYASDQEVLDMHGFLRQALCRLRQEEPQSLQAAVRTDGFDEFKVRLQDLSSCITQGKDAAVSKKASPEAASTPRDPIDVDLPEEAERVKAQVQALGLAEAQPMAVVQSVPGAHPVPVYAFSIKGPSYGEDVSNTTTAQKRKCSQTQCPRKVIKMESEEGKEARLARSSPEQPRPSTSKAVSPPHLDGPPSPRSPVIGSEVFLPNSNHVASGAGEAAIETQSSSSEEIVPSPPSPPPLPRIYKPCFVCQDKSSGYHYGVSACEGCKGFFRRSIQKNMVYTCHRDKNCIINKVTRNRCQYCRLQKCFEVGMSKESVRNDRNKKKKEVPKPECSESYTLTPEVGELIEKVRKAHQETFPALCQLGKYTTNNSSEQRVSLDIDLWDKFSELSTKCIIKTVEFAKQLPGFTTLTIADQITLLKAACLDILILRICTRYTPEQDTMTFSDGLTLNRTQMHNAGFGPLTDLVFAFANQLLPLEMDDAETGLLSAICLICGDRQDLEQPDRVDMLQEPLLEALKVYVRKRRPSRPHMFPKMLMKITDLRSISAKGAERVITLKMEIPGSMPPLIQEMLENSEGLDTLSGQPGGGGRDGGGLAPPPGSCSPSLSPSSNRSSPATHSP
Nature of the assay: Western blotting analysis of the PML epitope. In kind it is cell-based. The note with it: NB4 cells, 48 hours ATRA versus DMSO. (Immunoblotting shows a protein as a band on a membrane.)
Method: Western blotting analysis. Whole cell or nuclear lysates were generated by resuspending cells or nuclei in RIPA (Boston BioProducts) supplemented with 1× cOmplete EDTA-free protease inhibitor cocktail (Roche). Lysates were incubated on ice for 30 minutes, sonicated via a Sonic Dismembrator 100 (Fisher Scientific) at setting 3 with 3-4 pulses of 15 seconds on/off on ice, and treated with benzonase for an additional 30 minutes on ice. Lysates were clarified by centrifugation (15,000×g, 20 minutes, 4° C.) and their concentrations quantified via the detergent-compatible Bradford assay (Thermo Fisher Scientific). All Western blots were run on NuPAGE 4-12% Bis-Tris protein gels (Thermo Fisher Scientific) and transferred to 0.2 μm nitrocellulose membranes (GE Healthcare). Membranes were blocked with 3% milk in PBS-T and incubated overnight with primary antibody and subsequently with secondary antibody after brief washing with PBS-T. Chemiluminescence was determined by applying ECL Western Blotting detection reagent (GE Healthcare) to membranes and imaging on an Amersham Imager 600 (GE Healthcare). Membranes were stripped with Restore PLUS Stripping Buffer (Thermo Fisher Scientific). Primary antibodies used were anti-FLAG M2 (mouse, Sigma-Aldrich, F1804, 1:2000), anti-PCNA (mouse, PC10, Santa Cruz Biotechnology sc-56, 1:1000), and anti-PML (rabbit, Bethyl A301-[MUT], 1:1000). […]

For assay [3], the system named is NB4 cells. Nature of the assay: Cell proliferation assay (CellTiter-Glo). In kind it is cell-based, human. As to conditions: 1 μM ATRA, 48 hours, versus DMSO. Here is the method: Cell proliferation assay. NB4 cells were seeded at a density of 5e5 cells/mL subjected to either DMSO or 1 μM ATRA. After 48 hours, 50 μL cell suspension was added to 50 μL CellTiter-Glo reagent, incubated for 10 minutes at room temperature, and assayed for luminescence with a SpectraMax iD3 plate reader.
On the technique in general: ATP-based viability assays read luminescence as a measure of living cells.

For assay [4], the system named is NB4 cells. In words: iDAPT-MS of NB4 nuclei, ATRA versus DMSO. The format is cell-based, human. As to conditions: TP3 probe.
Method: DNA and protein tagging by iDAPT. All iDAPT proteomic labeling assays were performed as described below unless indicated otherwise. 2.5 μmol MEDS-A/B, 2 μmol enzyme, and 1 μmol hemin chloride per channel were incubated at room temperature for 1 hour. 1e7 cells per sample were washed (500×g, 5 minutes, 4° C.), lysed and triturated in 100 μL LB1 (10 mM Tris-HCl pH 7.5, 10 mM NaCl, 3 mM MgCl2, 1% BSA, 0.01% digitonin, 0.1% Tween-20, 0.1% NP-40, and 1× cOmplete EDTA-free protease inhibitor cocktail [Roche]) for 3 minutes, and subsequently supplemented with an additional 1 mL of LB2 (10 mM Tris-HCl pH 7.5, 10 mM NaCl, 3 mM MgCl2, 1% BSA, 0.1% Tween-20, and 1× protease inhibitor). Nuclei were pelleted (500×g, 10 minutes, 4° C.), resuspended with tagmentation reaction mixture (20% dimethylformamide, 10 mM MgCl2, 20 mM Tris-HCl pH 7.5, 33% 1×PBS, 1% BSA, 0.01% digitonin, 0.1% Tween-20, 500 μM biotin-phenol, 1× protease inhibitor, and 2 pmol enzyme equivalent of enzyme:DNA:heme complex in a total volume of 500 μL), and incubated at 37° C. for 30 minutes with agitation on a thermomixer (1,000 rpm). […] Lysates were clarified by centrifugation (15,000×g, 20 minutes, 4° C.), quantified via the detergent-compatible Bradford assay (Thermo Fisher Scientific), and subjected to either Western blotting or quantitative mass spectrometry analyses as described below. […]

For the compound `CC1=C(/C=C/C(C)=C/C=C/C(C)=C/C(=O)O)C(C)(C)CCC1` [ATRA, All-trans retinoic acid], the differentiation entry in assay [1] is “granulocytic differentiation”. In addition, the “effect on PML-RARA oncogenic fusion protein” value in assay [2] is “degradation of the PML-RARA oncogenic fusion protein”. The “proliferation (cell counts)” value in assay [3] is reported as “decreased proliferation”. Further, in assay [4], the “enrichment of PU.1/SPI1, CEBPB, and CEBPE on open chromatin” value is recorded as “positive enrichment”; the “enrichment of RARA on open chromatin” value is recorded as “negative enrichment”.
